Entries after “also recorded” stand apart in the source; their conditions may differ.
Tests used:
Format in all cases: cell-based
[1] = test system: NHEJ activity in PEO1 cells; assay: NHEJ end-joining reporter assay, PEO1; conditions: 72 hours
Excerpt: FIG. 3. Error-prone NHEJ activity is enhanced by PARP inhibitors in PEO1 cells. (A) Schematic of the in vivo NHEJ assay. Pem1-Ad2-EGFP is an EGFP-containing vector with a 2.4 kb intron (Pem1) and one exon (Ad2) inserted into the EGFP cassette. Pem1-Ad2-EGFP was cut with either HindIII or I-SceI to produce linearized substrate with compatible overhangs or incompatible inverted overhangs, respectively. Successfully recircularized plasmid will produce intact EGFP, which can be assayed via flow cytometry. Any residual uncut plasmid, due to the insertion of the Ad2 exon within the EGFP open reading frame, will be EGFP negative. A pCherry plasmid was co-transfected with substrate to correct for transfection efficiency. (B) and (C) Quantitation of NHEJ activity in PEO1 and PEO4 cells transfected with HindIII substrate (B) or I-SceI substrate (C) and exposed to ABT-888 for 72 hours. Each data point represents the mean±SEM from 3 independent experiments.
The end-joining reporter plasmid pEGFP-Pem1-Ad2 described elsewhere (Wang et al., Nucleic Acids Res., 34:6170-6182 (2006); Seluanov et al., Proc. Natl. Acad. Sci. USA, 101:7624-7629 (2004); and Fattah et al., PLoS Genet., 6:e1000855 (2010); see also (FIG. 3A)) was provided by E. Hendrickson (University of Minnesota, Minneapolis, Minn.) and was digested with either HindIII or I-SceI for 12 hours, and gel purified using a Qiagen gel extraction kit. […]

[2] = test system: HPRT locus in BRCA2-mutant CAPAN1 cells; assay: HPRT mutagenesis assay; conditions: 250 nM DNA-PKi, 72 hours
Description: FIG. 4. PARP inhibitor-induced chromosomal derangement and genomic instability is dependent on DNA-PK activity. (A) Representative images of metaphase spreads from cells treated with diluent (0.2% DMSO), 500 nM DNA-PKi, 2.5 μM ABT-888, or both ABT-888 and DNA-PKi for 72 hours. Chromosomal breaks are marked with arrowheads and radial structures are marked with asterisks. (B) Quantitation of data from (A) showing average radial chromosomes per cell (n=100 for each data point pooled from two separate experiments, error bars represent SEM). † indicate values that are zero. (C) Calculated mutagenesis frequency in BRCA2-mutant CAPAN1 cells after control treatment or exposure to ABT-888 with or without 250 nM DNA-PKi. Each bar represents the mean±SEM of 5-8 plates.
HPRT mutagenesis was performed as described elsewhere (Hashimoto et al., Clin. Cancer Res., 1:369-376 (1995)). […] Each sample group was trypsinized, replated at 10^6 cells/100-mm dish in medium E supplemented with 15 μM 6-TG, cultured until colonies were visible (14-21 days), and analyzed manually for colony formation. […] Mutagenesis frequencies were calculated by dividing the number of colonies on 6-TG-treated plates by the total number of possible colonies (10^6 cells×plating efficiency).

[3] = test system: BRCA1-deficient HCC1937 cells; assay: Clonogenic assay, HCC1937; conditions: continuous exposure, 125 nM DNA-PKi
Description: FIG. 6. […] (A) BRCA1-deficient HCC1937 and BRCA1-reconstituted HCC1937/BRCA1 cells were continuously exposed to ABT-888 in the presence or absence of 125 nM DNA-PKi and assayed for clonogenic survival. Inset, Western blots of cell lysates from HCC1937 and HCC1937/BRCA1. (B) Western blots of M059J and reconstituted M059J+DNA-PKcs lines showing the restoration of DNA-PK expression and the shRNA-mediated knockdown of BRCA1. (C) Clonogenic survival of shRNA transfected M059J/M059J+DNA-PKcs lines treated with ABT-888 for 72 hours. (D) Clonogenic survival of ATM-deficient GM16666 or ATM-reconstituted GM16667 fibroblasts. Cells were exposed to ABT-888 for 48 hours in the presence or absence of 250 nM DNA-PKi, washed, and allowed to form colonies. Inset, Western blots of lysates from GM16666 and GM16667 fibroblasts. […] Results are representative of 3 independent experiments.
Colony formation assays were performed on siRNA-transfected PEO1 and PEO4 cells 48 hours after the second transfection. Cells were trypsinized and plated at 750 cells/plate in triplicate 60-mm dishes containing medium A, allowed to grow 10-14 days, and stained with Coomassie Brilliant Blue. Colonies containing ≧50 cells were scored manually. […]

SMILES | end-joining of I-SceI-linearized substrate ([1]; PEO1 cells compared to PEO4 cells) | end-joining of HindIII-linearized substrate ([1]; PEO1 cells) | effect of co-administration on PARP inhibitor-induced HPRT mutation frequency [2] | effect on ABT-888 sensitivity (clonogenic survival) [3]
C[C@]1(c2nc3c(C(N)=O)cccc3[nH]2)CCCN1 [ABT-888] | significantly increased; also recorded: pronounced increase in end-joining | little effect; also recorded: small increase in end-joining |  | 
CCN1CCN(CC(=O)Nc2ccc(-c3cccc4c(=O)cc(N5CCOCC5)oc34)c3sc4ccccc4c23)CC1 [AZ 12594248] |  |  | markedly reduced the mutation frequency | diminished ABT-888 sensitivity
